Source: patent US20160045625A1, “[11C] AND [18F] LABELED 1,3-DIPHENYL-5-(PYRIMIDIN-2-YL)-PYRIDIN-2(1H)-ONE DERIVATIVES AND THEIR USE FOR PET IMAGING OF THE AMPA RECEPTOR” (EISAI R&D MANAGEMENT CO., LTD., priority 2013, published 2016)

Legend:
AMPA receptor [1] = conditions: in vivo PET, rat; cited from earlier work
AMPA receptor [2] = assay: In vitro receptor binding assay ([^3H]perampanel, Ki value measurement); set-up: species or system rat (Sprague-Dawley); conditions: rat forebrain membranes, 90 min at 4° C., Scatchard analysis
Procedure: Homogenate of forebrains of rats (Sprague-Dawley) was prepared in ice-cold solution containing 0.32 M sucrose and 0.1 mM EGTA (pH 7.4). Homogenate was centrifuged in 1000 g for 10 min and supernatant was collected. This supernatant was centrifuged in 30000 g for 20 min. Precipitate was suspended in 1 mM EGTA/Tris buffer (pH 8.0) by sonication, subjected osmotic lysis on ice for 10 min and centrifuged in 30000 g for 20 min. This procedure was conducted twice. Precipitate was suspended in 50 mM Tris HCl buffer (pH 7.4) by sonication and centrifuged in 30000 g for 20 min. This procedure was conducted three times. Precipitate was suspended in 50 mM Tris HCl buffer (pH 7.4) by sonication and stocked at −80° C. On the day of binding assay, stocked solution was suspended in 50 mM Tris HCl buffer (pH 7.4) by sonication and centrifuged in 30000 g for 20 min. This procedure was conducted three times. Precipitate was suspended in 50 mM Tris-HCl buffer (pH 7.4) by sonication and used for binding assay.
Receptor solution was re-suspended in binding buffer (50 mM Tris-HCl, pH 7.4) to a final concentration of 0.24 mg tissue eq./assay. The incubation time for [^3H]perampanel on AMPA receptor was 90 min at 4° C. After incubation, membranes were filtered onto GF/B filter presoaked with 0.3% PEI and washed three times with ice-cold wash buffer (same as binding buffer). Each filter was placed in a vial and 6 mL of liquid scintillator reagent (Hionic-Fluor; PerkinElmer Life & Analytical Sciences) were added. Radioactivity was counted (1 min) in a liquid scintillation counter (LSC-6100, Hitachi Aloka Medical, Ltd.).
Saturation isotherms were determined by addition of various concentrations of [^3H]perampanel (1-2000 nM). Nonspecific bindings for [^3H]perampanel was measured in the presence of 15 μM unlabeled compounds. Ki value was calculated by Scatchard analysis of saturation isotherm experiment.

AMPA receptor [3] = assay: In vivo PET blocking study in monkey; set-up: species or system Rhesus monkey; conditions: i.v. pretreatment 0.02 to 0.1 mg/kg, 15 min prior to radioligand (Example 4); CTX, HIP, CER, THA, STR
Procedure: FIG. 4. Rhesus monkey PET blocking study of the compound of Example 4. In vivo area under time-radioactivity curves of to the region of interests (CTX, HIP, cerebellum (CER), thalamus (THA), striatum (STR)) in the absence (control) and blockade by pretreatment with the unlabeled compound. Radioactivity is expressed as percentage of standardized uptake value (% SUV) and integrated radioactivity of the specific binding versus reference region (brain stem; BS) from 0 to 40 min during the PET scan.
For the PET blocking study, unlabeled compound (Reference Example 9, 0.1 mg/kg/5 mL to 0.02 mg/kg/5 mL of saline with 10% DMSO, 3 doses) was intravenously administrated via the crural vein as a single slow bolus over 10 min, 15 min prior to radioligand administration. All PET scans were acquired from the same two monkeys (n=2).
Area under time-radioactivity curves of to the region of interests (CTX, HIP, cerebellum (CER), thalamus (THA), STR) in the absence (control) and blockade by pretreatment with Reference Example 9. Radioactivity is expressed as percentage of standardized uptake value (% SUV) and integrated radioactivity from 0 to 40 min during the PET scan.

In the case of COc1cc2c(cc1O[11CH3])C(c1ccc(Cl)cc1)N(C(C)=O)CC2 (stereo not shown) [N-acetyl-1-(4-chlorophenyl)-6-methoxy-7-[^11C]methoxy-1,2,3,4-tetrahydroisoquinoline], the “clearance from the CNS” value (AMPA receptor [1]) is given as “rapid clearance from the CNS” and the specific binding (AMPA receptor [1]) is given as “low specific binding”.
In the case of CNc1cccc(-n2cc(-c3ncccn3)cc(-c3ccccc3C#N)c2=O)c1 [Reference Example 9, 2-(1-(3-(methylamino)phenyl)-2-oxo-5-(pyrimidin-2-yl)-1,2-dihydropyridin-3-yl)benzonitrile], the Ki (AMPA receptor [2]) is reported as 10 nM and the “radioactivity (area under time-radioactivity curves, % SUV, 0 to 40 min) compared to control” value (AMPA receptor [3]) is reported as “markedly reduced the radioactivity in dose dependent manner”.
Work on N#Cc1ccccc1-c1cc(-c2ncccn2)cn(-c2cccc(F)c2)c1=O [Reference Example 15, 2-(1-(3-fluorophenyl)-2-oxo-5-(pyrimidin-2-yl)-1,2-dihydropyridin-3-yl)benzonitrile] yielded a Ki (AMPA receptor [2]) of 20 nM.
N#Cc1ccccc1-c1cc(-c2ncccn2)cn(-c2ccc(F)c(N)c2)c1=O [Reference Example 19, 2-(1-(3-amino-4-fluorophenyl)-2-oxo-5-(pyrimidin-2-yl)-1,2-dihydropyridin-3-yl)benzonitrile] showed a Ki (AMPA receptor [2]) of 5 nM.
For O=c1c(-c2ccccc2F)cc(-c2ncccn2)cn1-c1cccc(CF)c1 [Reference Example 22, 3-(2-fluorophenyl)-1-(3-(fluoromethyl)phenyl)-5-(pyrimidin-2-yl)pyridin-2(1H)-one], the Ki (AMPA receptor [2]) was 22 nM.
